Counter-ions that a name gives are not always drawn. Like-named read-outs stand apart in the source and are kept apart here.
What was measured:
Type in all cases: cell-based
[1] = system: mutant HIV strain E; assay: microbe, parasite or virus in culture; settings: for fold resistance Strain E: FR=EC50 (mutant strain)/EC50 (HIV-1 strain LAI); for EC50: Human immunodeficiency virus 1, MT4, read-out: pEC50 Strain E, mutant HIV strain E, MT4 cells (converted)
Procedure: (§1) HIV- or mock-infected MT4 cells were incubated for five days in the presence of various concentrations of the inhibitor. […] Cell viability is measured by measuring the concentration of MTT, a yellow, water soluble tetrazolium dye that is converted to a purple, water insoluble formazan in the mitochondria of living cells only. Upon solubilization of the resulting formazan crystals with isopropanol, the absorbance of the solution is monitored at 540 nm. The values correlate directly to the number of living cells remaining in the culture at the completion of the five-day incubation. The inhibitory activity of the compound was monitored on the virus-infected cells and was expressed as EC50 and EC90. These values represent the amount of the compound required to protect 50% and 90%, respectively, of the cells from the cytopathogenic effect of the virus. […] The selectivity index (SI) (ratio CC50/EC50) is an indication of the selectivity of the anti-HIV activity of the inhibitor. Wherever results are reported as e.g. pEC50 or pCC50 values, the result is expressed as the negative logarithm of the result expressed as EC50 or CC50 respectively.

[2] = system: mutant HIV strain A; assay: microbe, parasite or virus in culture; settings: for fold resistance Strain A: FR=EC50 (mutant strain)/EC50 (HIV-1 strain LAI); for EC50: Human immunodeficiency virus 1, MT4, read-out: pEC50 Strain A, mutant HIV strain A, MT4 cells (converted)
Procedure: as §1

[3] = system: mutant HIV strain B; assay: microbe, parasite or virus in culture; settings: for fold resistance Strain B: FR=EC50 (mutant strain)/EC50 (HIV-1 strain LAI); for EC50: Human immunodeficiency virus 1, MT4, read-out: pEC50 Strain B, mutant HIV strain B, MT4 cells (converted)
Procedure: as §1

[4] = system: mutant HIV strain C; assay: microbe, parasite or virus in culture; settings: for fold resistance Strain C: FR=EC50 (mutant strain)/EC50 (HIV-1 strain LAI); for EC50: Human immunodeficiency virus 1, MT4, read-out: pEC50 Strain C, mutant HIV strain C, MT4 cells (converted)
Procedure: as §1

[5] = system: mutant HIV strain D; assay: microbe, parasite or virus in culture; settings: for fold resistance Strain D: FR=EC50 (mutant strain)/EC50 (HIV-1 strain LAI); for EC50: Human immunodeficiency virus 1, MT4, read-out: pEC50 Strain D, mutant HIV strain D, MT4 cells (converted)
Procedure: as §1

[6] = system: mutant HIV strain F; assay: microbe, parasite or virus in culture; settings: for fold resistance Strain F: FR=EC50 (mutant strain)/EC50 (HIV-1 strain LAI); for EC50: Human immunodeficiency virus 1, MT4, read-out: pEC50 Strain F, mutant HIV strain F, MT4 cells (converted)
Procedure: as §1

[7] = system: HIV-1 strain LAI; assay: Cellular anti-HIV assay (MT4/MTT), wild type; settings: MT4 cells, read-out: WT (pEC50) (converted)
Procedure: as §1, with “The compounds of the present invention were examined for anti-viral activity in a cellular assay. […] The cellular assay was performed according to the following procedure. HIV-” for “HIV-”

[8] = Toxicity on mock-infected cells (MTT); settings: human
Procedure: HIV- or mock-infected MT4 cells were incubated for five days in the presence of various concentrations of the inhibitor. At the end of the incubation period, the replicating virus in the control cultures has killed all HIV-infected cells in the absence of any inhibitor. Cell viability is measured by measuring the concentration of MTT, a yellow, water soluble tetrazolium dye that is converted to a purple, water insoluble formazan in the mitochondria of living cells only. Upon solubilization of the resulting formazan crystals with isopropanol, the absorbance of the solution is monitored at 540 nm. The values correlate directly to the number of living cells remaining in the culture at the completion of the five-day incubation. The inhibitory activity of the compound was monitored on the virus-infected cells and was expressed as EC50 and EC90. These values represent the amount of the compound required to protect 50% and 90%, respectively, of the cells from the cytopathogenic effect of the virus. […] The selectivity index (SI) (ratio CC50/EC50) is an indication of the selectivity of the anti-HIV activity of the inhibitor. Wherever results are reported as e.g. pEC50 or pCC50 values, the result is expressed as the negative logarithm of the result expressed as EC50 or CC50 respectively.

[9] = Human immunodeficiency virus 1, wild type HIV-1 strain LAI
[10] = Human immunodeficiency virus 1, MT4, wild type HIV-1 strain LAI

Compound | fold resistance Strain E [1] | EC50 [1] [nM] | fold resistance Strain A [2] | EC50 [2] [nM] | fold resistance Strain B [3] | EC50 [3] [nM] | fold resistance Strain C [4] | EC50 [4] [nM] | fold resistance Strain D [5] | EC50 [5] [nM] | fold resistance Strain F [6] | EC50 [6] [nM] | EC50 [7, 9] [nM] | CC50 at 5 days [8] [nM] | also measured
CNc1nc2ccc(S(=O)(=O)N(CC(C)C)C[C@@H](O)[C@H](Cc3ccccc3)NC(=O)c3ccc(Br)cc3C)cc2s1 [Compound 27, N-{(1S,2R)-1-benzyl-2-hydroxy-3-[isobutyl-(2-methylamino-benzothiazole-6-sulfonyl)-amino]-propyl}-4-bromo-2-methyl-benzamide] | 1.6 | 30.9 | 8.3 | 158 | 1.1 | 20.4 | 263.0 | 5010 | 4.5 | 85.1 | 33.9 | 646 | 19.1 | > 100000 | 
Cc1cc(CN)cc(C)c1OCC(=O)N[C@@H](Cc1ccccc1)[C@H](O)CN(CC(C)C)S(=O)(=O)c1ccc2nc(N)sc2c1 [Compound 17, N-{(1S,2R)-3-[(2-amino-benzothiazole-6-sulfonyl)-isobutyl-amino]-1-benzyl-2-hydroxypropyl}-2-(4-aminomethyl-2,6-dimethyl-phenoxy)-acetamide] | 1.1 | 7.59 | 4.5 | 31.6 | 0.9 | 6.61 | 1.7 | 12.3 | 3.3 | 23.4 | 22.4 | 158 | 7.08 | 63100 | 
CC(C)CN(C[C@@H](O)[C@H](Cc1ccccc1)NC(=O)OC1CCOC1)S(=O)(=O)c1ccc2nc(N)sc2c1 (stereo partly drawn) [Compound 12, {(1S,2R)-3-[(2-amino-benzothiazole-6-sulfonyl)-isobutyl-amino]-1-benzyl-2-hydroxypropyl}-carbamic acid tetrahydro-furan-3-yl ester] | 1.8 | 7.76 | 53.7 | 229 | 1.8 | 7.59 | 44.7 | 191 | 6.2 | 26.3 |  |  | 4.27 | > 100000 | 
CNc1nc2ccc(S(=O)(=O)N(CC(C)C)C[C@@H](O)[C@H](Cc3ccccc3)NC(=O)c3cccc(O)c3C)cc2s1 [Compound 23, N-{(1S,2R)-1-benzyl-2-hydroxy-3-[isobutyl-(2-methylamino-benzothiazole-6-sulfonyl)-amino]-propyl}-3-hydroxy-2-methyl-benzamide trifluoroacetate] |  | 7.24 |  | 288 |  | 9.55 |  | 8.71 |  | 21.4 |  |  |  | 69200 | EC50 [7, 10]: 4.57 nM
CC(C)CN(C[C@@H](O)[C@H](Cc1ccccc1)NC(=O)OCc1cccnc1)S(=O)(=O)c1ccc2nc(N)sc2c1 [Compound 9, {(1S,2R)-3-[(2-amino-benzothiazole-6-sulfonyl)-isobutyl-amino]-1-benzyl-2-hydroxypropyl}-carbamic acid pyridin-3-ylmethyl ester] | 4.9 | 24 | 53.7 | 263 | 1.1 | 5.62 | 1000.0 | 4900 | 8.5 | 41.7 |  |  | 4.9 | 51300 | 
Cc1ccccc1C(=O)N[C@@H](Cc1ccccc1)[C@H](O)CN(CC(C)C)S(=O)(=O)c1ccc2nc(N)sc2c1 [Compound 14, N-{(1S,2R)-3-[(2-amino-benzothiazole-6-sulfonyl)-isobutyl-amino]-1-benzyl-2-hydroxypropyl}-2-methyl-benzamide] | 7.9 | 30.2 | 234.4 | 891 | 7.1 | 26.9 | 46.8 | 178 | 10.5 | 39.8 |  |  | 3.8 | 46800 | 
CNc1nc2ccc(S(=O)(=O)N(CC(C)C)C[C@@H](O)[C@H](Cc3ccccc3)NC(=O)COc3c(C)cc(N)cc3C)cc2s1 [Compound 26, 2-(4-amino-2,6-dimethyl-phenoxy)-N-{(1S,2R)-1-benzyl-2-hydroxy-3-[isobutyl-(2-methylamino-benzothiazole-6-sulfonyl)-amino]-propyl}-acetamide] | 2.3 | 6.17 | 11.2 | 30.2 | 1.5 | 3.98 | 2.7 | 7.24 | 3.1 | 8.32 | 20.9 | 56.2 | 2.69 |  | 
CC(C)CN(C[C@@H](O)[C@H](Cc1ccccc1)NC(=O)OC1COC2OCCC12)S(=O)(=O)c1ccc2nc(N(C)C)sc2c1 (stereo partly drawn) [Compound 6, {(1S,2R)-1-benzyl-3-[(2-dimethylamino-benzothiazole-6-sulfonyl)-isobutyl-amino]-2-hydroxy-propyl}-carbamic acid hexahydro-furo[2,3-b]furan-3-yl ester] |  |  | 50.1 | 200 | 32.4 | 129 | 8.5 | 33.9 | 27.5 | 110 | 177.8 | 708 | 3.98 | > 100000 | 
CNc1nc2ccc(S(=O)(=O)N(CC(C)C)C[C@@H](O)[C@H](Cc3ccccc3)NC(=O)OCc3cncs3)cc2s1.O=C(O)C(F)(F)F [Compound 19, {(1S,2R)-1-benzyl-2-hydroxy-3-[isobutyl-(2-methylamino-benzothiazole-6-sulfonyl)-amino]-propyl}-carbamic acid thiazol-5-ylmethyl ester trifluoroacetate] |  |  |  |  |  |  |  |  |  |  |  |  |  |  | pEC50 Strain E ([1]; mutant HIV strain E, MT4 cells): 7.90; pEC50 Strain A ([2]; mutant HIV strain A, MT4 cells): 7.36; pEC50 Strain B ([3]; mutant HIV strain B, MT4 cells): 7.80; pEC50 Strain C ([4]; mutant HIV strain C, MT4 cells): 7.88; pEC50 Strain D ([5]; mutant HIV strain D, MT4 cells): 7.43; pEC50 Strain F ([6]; mutant HIV strain F, MT4 cells): 6.80; EC50 [7, 10]: 3.09 nM
